Here are results for 17 molecules from US20200131669A1, “CYCLIC PEPTIDE COMPOUND HAVING HIGH MEMBRANE PERMEABILITY, AND LIBRARY CONTAINING SAME” (Chugai Seiyaku Kabushiki Kaisha, priority 2017, published 2020).

Starred links: 1 amine or outer side, 2 acyl side, 3 side chain; linkers in the order of their positions; H or OH if unused. Positions of bridges follow the written chain, without caps; N, C: chain ends. Non-standard residues stand in square brackets, D forms with d. Residues, ends and D or L forms follow the SMILES beside them. *: point of attachment. NMeAla(4-thiazolyl) = CN[C@@H](Cc1cscn1)C(=O)O; Ala(4-thiazolyl) = N[C@@H](Cc1cscn1)C(=O)O; NMeF = CN[C@@H](Cc1ccccc1)C(=O)O; NMeβAla = CN(CCC(=O)[*:2])[*:1]; NMeL = CN[C@@H](CC(C)C)C(=O)O; NMeV = CN[C@H](C(=O)O)C(C)C; NMeA = CN[C@@H](C)C(=O)O; Piperidide = C1CCN(*)CC1; Sar = CNCC(=O)O; tBu = CC(C)(C)*

The first series can be described thus: Caco-2 membrane permeability, improved method as used in the following Examples (96-well, 20 to 24 h preincubation). Type of series: in vitro ADME. The settings on record: human, Caco-2, Caco-2 (cm/sec). In a few lines: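 Caco-2 monolayers were grown three weeks and preincubated 20–24 h at 37 °C with compound in DMEM+FaSSIF (1% DMSO) apically. The assay then used compound in FaSSIF/HBSS (1% DMSO, pH 6.0) apically and HBSS with 4% BSA (pH 7.4) basally. Basal samples were taken at 180 min for LC/MS, and Papp (cm/sec) was calculated.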
In general terms: Passage across Caco-2 layers is used to estimate intestinal permeability.
Consider `CC(C)C[C@@H]1NC(=O)[C@H](Cc2ccccc2)N(C)C(=O)[C@H](C)N(C)C(=O)C[C@@H](C(=O)N2CCCCC2)NC(=O)[C@H](CC(C)C)N(C)C(=O)[C@H](Cc2ccccc2)N(C)C(=O)[C@H](Cc2ccccc2)NC(=O)[C@H](Cc2cscn2)N(C)C(=O)[C@H](C)N(C)C(=O)[C@H]([C@@H](C)O)NC(=O)[C@H](CC(C)C)N(C)C1=O` [pd226] ([NMeA][NMeF]L[NMeL]T[NMeA][NMeAla(4-thiazolyl)]F[NMeF][NMeL]D-Piperidide; lactam N-11), for which the Papp A→B at 180 min came to 0.68 ×10⁻⁶ cm/s.

`CC(C)C[C@@H]1NC(=O)[C@H](Cc2ccccc2)N(C)C(=O)C[C@@H](C(=O)N2CCCCC2)NC(=O)[C@H](CC(C)C)N(C)C(=O)CN(C)C(=O)[C@H]([C@@H](C)O)NC(=O)[C@H](Cc2ccccc2)N(C)C(=O)[C@H](Cc2ccccc2)N(C)C(=O)[C@H](CC(C)C)NC(=O)[C@H](Cc2ccccc2)N(C)C(=O)[C@H](CC(C)C)N(C)C1=O` [pd227] ([NMeF]L[NMeL][NMeF]L[NMeF][NMeF]T[Sar][NMeL]D-Piperidide; lactam N-11) had a Papp A→B at 180 min of 0.61 ×10⁻⁶ cm/s.

`CC(C)C[C@@H]1NC(=O)[C@H](CC(C)C)N(C)C(=O)C[C@@H](C(=O)N2CCCCC2)NC(=O)[C@H](CC(C)C)N(C)C(=O)CN(C)C(=O)[C@H]([C@@H](C)O)NC(=O)[C@H](Cc2cscn2)N(C)C(=O)[C@H](Cc2ccccc2)N(C)C(=O)[C@H](Cc2ccccc2)NC(=O)[C@H](Cc2ccccc2)N(C)C(=O)[C@H](CC(C)C)N(C)C1=O` [pd228] ([NMeL]L[NMeL][NMeF]F[NMeF][NMeAla(4-thiazolyl)]T[Sar][NMeL]D-Piperidide; lactam N-11): the Papp A→B at 180 min is 0.58 ×10⁻⁶ cm/s.

With `CC(C)C[C@@H]1NC(=O)[C@H](Cc2ccccc2)N(C)C(=O)[C@H](C(C)C)N(C)C(=O)C[C@@H](C(=O)N2CCCCC2)NC(=O)[C@H]([C@@H](C)O)NC(=O)[C@H](Cc2ccccc2)N(C)C(=O)[C@H](Cc2ccccc2)NC(=O)[C@H](Cc2ccccc2)N(C)C(=O)CN(C)C(=O)[C@H](C)N(C)C(=O)[C@H](CC(C)C)N(C)C1=O` [pd229] ([NMeV][NMeF]L[NMeL][NMeA][Sar][NMeF]F[NMeF]TD-Piperidide; lactam N-11), the Papp A→B at 180 min turned out to be 0.41 ×10⁻⁶ cm/s.

The molecule `CC(C)C[C@@H]1NC(=O)[C@H](Cc2ccccc2)N(C)C(=O)[C@H]([C@@H](C)O)NC(=O)[C@H](Cc2ccccc2)NC(=O)[C@H](Cc2ccccc2)N(C)C(=O)C[C@@H](C(=O)N2CCCCC2)NC(=O)[C@H](C)N(C)C(=O)[C@H](CC(C)C)N(C)C(=O)CN(C)C(=O)[C@H](CC(C)C)N(C)C(=O)[C@H](Cc2ccccc2)N(C)C1=O` [pd230] ([NMeF]FT[NMeF]L[NMeF][NMeL][Sar][NMeL][NMeA]D-Piperidide; lactam N-11) gave a Papp A→B at 180 min of 0.25 ×10⁻⁶ cm/s.

`CC(C)C[C@@H]1NC(=O)[C@H](Cc2ccccc2)N(C)C(=O)[C@H]([C@@H](C)O)NC(=O)[C@H](Cc2ccccc2)N(C)C(=O)CN(C)C(=O)[C@H](Cc2ccccc2)NC(=O)[C@H](CC(C)C)N(C)C(=O)[C@H](CC(C)C)NC(=O)[C@H](Cc2ccccc2)N(C)C(=O)[C@H](C)N(C)C(=O)C[C@@H](C(=O)N2CCCCC2)NC1=O` [pd231] ([NMeA][NMeF]L[NMeL]F[Sar][NMeF]T[NMeF]LD-Piperidide; lactam N-11): the Papp A→B at 180 min amounted to 0.21 ×10⁻⁶ cm/s.

In the case of `CC(C)C[C@H]1C(=O)N(C)[C@@H](Cc2ccccc2)C(=O)N(C)[C@@H](Cc2ccccc2)C(=O)N[C@@H]([C@@H](C)O)C(=O)N(C)[C@@H](C)C(=O)N(C)[C@@H](Cc2ccccc2)C(=O)N[C@H](C(=O)N2CCCCC2)CC(=O)N(C)[C@@H](C)C(=O)N(C)[C@@H](CC(C)C)C(=O)N(C)[C@@H](Cc2ccccc2)C(=O)N[C@@H](C)C(=O)N1C` [pd232] ([NMeA][NMeL][NMeF]A[NMeL][NMeF][NMeF]T[NMeA][NMeF]D-Piperidide; lactam N-11), the Papp A→B at 180 min is 0.19 ×10⁻⁶ cm/s.

On to `CC(C)C[C@H]1C(=O)N(C)[C@@H](Cc2ccccc2)C(=O)N(C)[C@@H](Cc2ccccc2)C(=O)N[C@@H]([C@@H](C)O)C(=O)N(C)[C@@H](C)C(=O)N(C)[C@@H](Cc2ccccc2)C(=O)N[C@H](C(=O)N2CCCCC2)CC(=O)N(C)[C@@H](C)C(=O)N(C)[C@@H](Cc2ccccc2)C(=O)N(C)[C@@H](CC(C)C)C(=O)N[C@@H](C(C)C)C(=O)N1C` [pd233] ([NMeA][NMeF][NMeL]V[NMeL][NMeF][NMeF]T[NMeA][NMeF]D-Piperidide; lactam N-11), for which the Papp A→B at 180 min was 0.17 ×10⁻⁶ cm/s.

Take `CC(C)C[C@@H]1NC(=O)[C@H](CC(C)C)N(C)C(=O)[C@@H](C)NC(=O)C[C@@H](C(=O)N2CCCCC2)NC(=O)[C@H](Cc2ccccc2)N(C)C(=O)[C@H](Cc2ccccc2)N(C)C(=O)[C@H](C)N(C)C(=O)[C@H]([C@@H](C)O)NC(=O)[C@H](Cc2ccccc2)N(C)C(=O)[C@H](COC(C)(C)C)NC(=O)[C@H](Cc2ccccc2)N(C)C1=O` [pd234] ([dA][NMeL]L[NMeF]S(tBu)[NMeF]T[NMeA][NMeF][NMeF]D-Piperidide; lactam N-11): the Papp A→B at 180 min stood at 0.15 ×10⁻⁶ cm/s.

For the molecule `CC(C)C[C@@H]1NC(=O)[C@H](CC(C)C)N(C)C(=O)[C@H](CC(C)C)N(C)C(=O)CNC(=O)[C@H](Cc2ccccc2)N(C)C(=O)[C@H](Cc2cscn2)NC(=O)[C@H](CC(C)C)N(C)C(=O)[C@H](Cc2ccccc2)NC(=O)[C@H](C)NC(=O)C[C@@H](C(=O)N(C)[C@@H](Cc2ccccc2)C(=O)N[C@@H](C)C(=O)N2CCCCC2)NC1=O` [pd235] (AF[NMeL][Ala(4-thiazolyl)][NMeF]G[NMeL][NMeL]LD[NMeF]A-Piperidide; lactam N-10), the Papp A→B at 180 min is 0.1 ×10⁻⁶ cm/s.

The molecule `CC(C)C[C@H]1C(=O)N[C@@H](COC(C)(C)C)C(=O)N[C@@H]([C@@H](C)O)C(=O)N(C)[C@@H](Cc2ccccc2)C(=O)N[C@H](C(=O)N2CCCCC2)CC(=O)N[C@@H](C)C(=O)N(C)[C@@H](Cc2ccccc2)C(=O)N(C)[C@@H](C)C(=O)N(C)[C@@H](Cc2ccccc2)C(=O)N(C)[C@@H](CC(C)C)C(=O)N[C@@H](Cc2ccccc2)C(=O)N1C` [pd237] (A[NMeF][NMeA][NMeF][NMeL]F[NMeL]S(tBu)T[NMeF]D-Piperidide; lactam N-11) registered a Papp A→B at 180 min of 0.089 ×10⁻⁶ cm/s.

`CC(C)C[C@@H]1NC(=O)[C@H](Cc2ccccc2)N(C)C(=O)[C@H](C)N(C)C(=O)C[C@@H](C(=O)N2CCCCC2)NC(=O)[C@H](CC(C)C)N(C)C(=O)[C@H](Cc2ccccc2)N(C)C(=O)[C@H](Cc2ccccc2)NC(=O)[C@H](Cc2cscn2)N(C)C(=O)[C@H](C)N(C)C(=O)[C@H](CC(C)C)N(C)C(=O)[C@H]([C@@H](C)O)NC1=O` [pd238] ([NMeA][NMeF]LT[NMeL][NMeA][NMeAla(4-thiazolyl)]F[NMeF][NMeL]D-Piperidide; lactam N-11) displayed a Papp A→B at 180 min of 0.088 ×10⁻⁶ cm/s.

On to `CC[C@H](C)[C@@H]1NC(=O)[C@H](Cc2ccccc2)N(C)C(=O)[C@H](C)N(C)C(=O)[C@H](CC(C)C)N(C)C(=O)[C@H](Cc2ccccc2)N(C)C(=O)CCN(C)C(=O)C[C@@H](C(=O)N(C)[C@@H](Cc2ccccc2)C(=O)N(C)[C@@H](Cc2ccccc2)C(=O)N[C@@H](C)C(=O)N2CCCCC2)NC(=O)[C@H]([C@@H](C)O)NC(=O)[C@H](CC(C)C)N(C)C(=O)[C@H](CC(C)C)N(C)C1=O` [pd239] ([NMeβAla][NMeF][NMeL][NMeA][NMeF]I[NMeL][NMeL]TD[NMeF][NMeF]A-Piperidide; lactam N-10), for which the Papp A→B at 180 min was found to be 0.065 ×10⁻⁶ cm/s.

`CC[C@H](C)[C@@H]1NC(=O)[C@H](Cc2ccccc2)N(C)C(=O)[C@H](C)N(C)C(=O)C[C@@H](C(=O)N(C)[C@@H](Cc2ccccc2)C(=O)N(C)[C@@H](Cc2ccccc2)C(=O)N[C@@H](C)C(=O)N2CCCCC2)NC(=O)[C@H](CC(C)C)N(C)C(=O)[C@H](Cc2ccccc2)N(C)C(=O)[C@H]([C@@H](C)O)NC(=O)[C@H](CC(C)C)N(C)C(=O)[C@H](CC(C)C)N(C)C(=O)[C@H](C)N(C)C1=O` [pd240] ([NMeA][NMeF]I[NMeA][NMeL][NMeL]T[NMeF][NMeL]D[NMeF][NMeF]A-Piperidide; lactam N-10) came in with a Papp A→B at 180 min of 0.06 ×10⁻⁶ cm/s.

Molecule `CC(C)C[C@H]1C(=O)N(C)[C@@H](Cc2ccccc2)C(=O)N(C)[C@@H](CC(C)C)C(=O)N[C@H](C(=O)N(C)[C@@H](Cc2ccccc2)C(=O)N[C@@H](Cc2ccccc2)C(=O)N2CCCCC2)CC(=O)N[C@@H](C(C)C)C(=O)N[C@@H](C)C(=O)N[C@@H]([C@@H](C)O)C(=O)N(C)[C@@H](C)C(=O)N[C@@H](Cc2ccccc2)C(=O)N1C` [pd241] (VAT[NMeA]F[NMeL][NMeF][NMeL]D[NMeF]F-Piperidide; lactam N-9) had a Papp A→B at 180 min of 0.058 ×10⁻⁶ cm/s.

The molecule `CC[C@H](C)[C@@H]1NC(=O)[C@H](Cc2ccccc2)N(C)C(=O)[C@H]([C@@H](C)O)NC(=O)[C@@H](C)NC(=O)C[C@@H](C(=O)N(C)[C@@H](Cc2ccccc2)C(=O)N(C)[C@@H](Cc2ccccc2)C(=O)N[C@@H](C)C(=O)N2CCCCC2)NC(=O)[C@H](CC(C)C)N(C)C(=O)[C@H](CC(C)C)N(C)C(=O)[C@H](Cc2ccccc2)N(C)C(=O)[C@H](CC(C)C)N(C)C(=O)[C@H](C)N(C)C1=O` [pd242] ([dA]T[NMeF]I[NMeA][NMeL][NMeF][NMeL][NMeL]D[NMeF][NMeF]A-Piperidide; lactam N-10) registered a Papp A→B at 180 min of 0.058 ×10⁻⁶ cm/s.

The same series, now with this note: human, Caco-2; Papp; Table 24, sequences where ARC = 4; read-out: Caco-2.
As to `CC(C)C[C@@H]1NC(=O)[C@H](C)N(C)C(=O)C[C@@H](C(=O)N2CCCCC2)NC(=O)[C@H](CC(C)C)N(C)C(=O)CN(C)C(=O)[C@H]([C@@H](C)O)NC(=O)[C@H](Cc2cscn2)N(C)C(=O)[C@H](Cc2ccccc2)N(C)C(=O)[C@H](Cc2ccccc2)NC(=O)[C@H](Cc2ccccc2)NC(=O)[C@H](CC(C)C)N(C)C1=O` [pd236] ([NMeA]L[NMeL]FF[NMeF][NMeAla(4-thiazolyl)]T[Sar][NMeL]D-Piperidide; lactam N-11), the Papp A→B at 180 min amounted to 0.096 ×10⁻⁶ cm/s.
